Tests used:
tumor cells of PC3 line = assay: in vivo therapeutic effect of PDT in tumor-bearing Scid mice; settings: 665 nm; for curative ratio: photosensitizer 0.5 μmol/kg i.v., light 24 h later, 135 J/cm^2, 75 mW/cm^2, 60 days, 10 mice; for mice with no tumor relapse observed after 60 days: photosensitizer 0.5 μmol/kg, 135 J/cm^2, 75 mW/cm^2
Protocol: Procedure: subcutaneous injection of 3×10^5 tumor cells were performed to the mice, and the cells were allowed to grow so that the diameter can reach 4-5 mm. The hairs at the inoculation site were shaved one day before laser irradiation, and the photosensitizer at various concentrations was intravenously injected to the mice. The mice were not anesthetized, and were limited in a plastic circle 24 h after photosensitizer injection (such as Compound 1 or 3). Subsequently, light treatment was performed after the emission wavelength was tuned to the activation wavelength of the drug using an argon-pumped dye laser monochromes, wherein paclitaxel was additionally injected 8 h before exposure in the combination therapy group. The parameters involved in the therapy included a diameter of 1 cm^2, fluence rate of 75 mW/cm^2 and total light dosage of 135 J/cm^2.
If tumor growth was observed, two perpendicular values L and W (perpendicular to L) were used for the detection, and the volume of tumor can be calculated according to the equation V=(L×W^2)/2. If no evidence for regeneration can be observed 60 days after PDT therapy, the mice can be considered as cured. There were 10 mice in each group at each concentration.
The dosages of HPPH and HPPH-thymidine conjugate used in this experiment were both 0.5 μmol/kg. The single dosage of paclitaxel for additional injection 8 h before exposure was 35 mg/kg. The irradiation parameters included 665 nm, 135 J/cm^2, and 75 mW/cm^2. The curative ratio can be simply calculated based on the equation: number of mice without tumor regeneration×100%/total number of mice. For example, 60 days after administration of Compound 3, i.e., HPPH-thymidine conjugate of the present invention, there were 5 mice without tumor regeneration, and there were totally 10 mice in each group. Accordingly, the curative ratio is 5×100%/10, i.e., 50%.

PC3 cell line [1] = assay: in vitro light-induced cytotoxicity test (PDT, MTT assay); assay type: cell-based, human; settings: for survival rate: Pharmaceutical 3 0.003 μM
Protocol: In the present invention, the in vitro therapeutic effect of PDT was compared among HPPH, HPPH-thymidine conjugate and HPPH-thymidine conjugate in combination with chemotherapeutic agent paclitaxel in an in vitro light-induced cytotoxicity test.
Procedure: in this Example, a highly metastatic and […] prostatic cancer cell, PC3 cell line, was selected. The PC3 cells were cultured in RPMI 1640 medium supplemented with 10% fetal bovine serum, L-glutamine, penicillin, and streptomycin at 37° C., 5% CO2 and 95% air, and 100% humidity. Subsequently, the PC3 cells were inoculated in the complete medium in a 96-well plate at the density of 5×10^3 cell/well with 6 multiple wells arranged. After cultured at 37° C. overnight, the cells were treated by the photosensitizer or paclitaxel at gradient concentrations in darkness for 24 h. For the treatment using HPPH-thymidine conjugate in combination with paclitaxel, paclitaxel was additionally injected 8 h before exposure, and the concentrations of paclitaxel and the photosensitizer were the same as above.
After the pharmaceutical-containing medium was replaced by fresh medium, the cells were irradiated by light at 665 nm and with a dosage rate of 3.2 mW/cm^2 using an argon-pumped dye laser.
After treated by PDT or paclitaxel alone, the cells were cultured for 48 h at 37° C. in darkness. The phototoxicity was determined by MTT assay (by comparison of the survival rate between the test cells and the untreated cells). The dosage-response survival curve was also plotted. In the Figures, the value was the average of 3 independent experiments, and the error bar stood for standard deviation. In each treatment, the concentration of Compound 3, i.e., HPPH-thymidine conjugate, was 0.06 μM, and the concentration of Compound 1, i.e., HPPH, was 0.06 μM, and the concentration of paclitaxel was 2 nM.

[2] = tested on: PC-3 (human prostatic cancer) cell line; assay: in vitro light cytotoxicity test of PDT at 675 nm or 703 nm (MTT); assay type: cell-based
Protocol: The in vitro therapeutic effect of PDT was compared among the following compounds in PC-3 (human prostatic cancer) cell line by in vitro light cytotoxicity test. The procedure was the same as that in Example 4. Briefly, PC3 cells were coated onto the wells of a 96-well plate and adhered for 6-24 h. Subsequently, the cells were treated by the PDT photosensitizer at various concentrations for 24 h, followed by irradiation at 675 nm (dose rate of 3.2 mW/cm^2) or 703 nm (dose rate of 3.2 mW/cm^2) using various high dosages. After 48 h, the cell growth was evaluated by colorimetry, wherein the insoluble formazan product generated in MTT method was dissolved and its concentration was detected at 570 nm through optical density.
The results of the treatment at 675 nm were shown in FIG. 4, wherein PLH-14 was Compound 5 in Example 2, and PLH-13 was Compound 6, i.e., thymidine conjugate of Compound 5, in Example 2. The concentration of both PLH-13 and PLH-14 was 0.1 μM. The results of the treatment at 703 nm were shown in FIG. 5, wherein 277-COOH was Compound 7 in Example 3, and PLH-12 was Compound 8, i.e., thymidine conjugate of Compound 7, in Example 3. The concentration of both 277-COOH and PLH-12 was 0.05 μM. As shown in FIG. 4 and FIG. 5, the in vitro therapeutic effect of PDT using the photosensitizer was enhanced by conjugation of Compound 5, […] Compound 7 with thymidine.

PC3 cell line [3] = assay: morphology change by DAPI staining; assay type: cell-based, human; settings: paclitaxel pretreatment

## 2-((1′-n-hexyloxy)ethyl)-2-devinyl-pyropheophorbide-α [Compound 1, reference compound]
Tumor cells of PC3 line
  curative ratio: 30%
  mice with no tumor relapse observed after 60 days: 3/10

## CCCCCCOC(C)c1c(C)c2cc3nc(c4c5[nH]c(cc6nc(cc1[nH]2)C(C)=C6CC)c(C)c5C(=O)C4)C(CCC(=O)OCC1OC(n2cc(C)c(=O)[nH]c2=O)CC1O)C3C (centres unmarked) [Compound 3, 17^3-thymidylyl-3-((1′-n-hexyloxy)ethyl)-3-devinyl-pyropheophorbide]
PC3 cell line [1]; PDT with Compound 3 0.06 μM alone, 665 nm, 3.2 mW/cm^2, MTT after 48 h
  light dosage of IC50: 0.13 J/cm^2
PC3 cell line [1]; light dosage 0.25 J/cm^2, before action of paclitaxel
  survival rate: 100%
PC3 cell line [1]; light dosage 0.25 J/cm^2, under the action of paclitaxel (0.000704)
  survival rate: 80%
PC3 cell line [1]; photosensitizer 0.06 μM, paclitaxel 2 nM, 665 nm
  in vitro therapeutic effect of PDT (cell survival vs light dosage, FIG. 3): higher than that using HPPH
Tumor cells of PC3 line
  curative ratio: 50%
  mice with no tumor relapse observed after 60 days: 5/10

## CCCCCCOC(C)c1c(C)c2[nH]c1cc1nc(cc3[nH]c4c(c5nc(c2-c2ccc(C(=O)OCC6OC(n7cc(C)c(=O)[nH]c7=O)CC6O)cc2)C(C)C5CCC(=O)OCC2OC(n5cc(C)c(=O)[nH]c5=O)CC2O)CC(=O)c4c3C)C(CC)=C1C (centres unmarked) [Compound 6, 17^3-thymidylyl-20-(4-thymidylyloxycarbonyl)phenyl-3-((1′-n-hexyloxy)ethyl)-3-devinyl-pyro pheophorbide]
[2]; 675 nm, 3.2 mW/cm^2, 0.1 μM, compared with unconjugated PLH-14 (Compound 5)
  in vitro therapeutic effect of PDT (percentage of control growth, FIG. 4): enhanced

## CCCCOC(C)c1c(C)c2cc3nc(c4c5[nH]c(cc6nc(cc1[nH]2)C(C)=C6CC)c(C)c5C(=O)N(CCCC)C4=O)C(CCC(=O)OCC1OC(n2cc(C)c(=O)[nH]c2=O)CC1O)C3C (centres unmarked) [Compound 8]
[2]; 703 nm, 3.2 mW/cm^2, 0.05 μM, compared with unconjugated 277-COOH (Compound 7)
  in vitro therapeutic effect of PDT (relative growth rate, FIG. 5): enhanced

## CC(=O)O[C@H]1C(=O)[C@@]2(C)[C@H]([C@H](OC(=O)c3ccccc3)[C@]3(O)C[C@H](OC(=O)[C@H](O)[C@@H](NC(=O)c4ccccc4)c4ccccc4)C(C)=C1C3(C)C)[C@]1(OC(C)=O)CO[C@@H]1C[C@@H]2O [paclitaxel]
PC3 cell line [3]
  mechanism of cell death: apoptosis mechanism
